Test results: patent publication US20230391758A1, “MODIFIED BENZOFURAN-CARBOXAMIDES AS GLUCOSYLCERAMIDE SYNTHASE INHIBITORS” (MERCK SHARP & DOHME CORP., priority 2020, published 2023)

Each compound was assayed against GCS enzyme (glucosylceramide synthase) contained within Golgi preparations isolated from human A375 malignant melanoma skin cells (Homo sapiens (Human), UniProt Q16739) (assay: UDP-Glo glucosylceramide synthase biochemical assay). Conditions: 1.5 μg crude golgi preparation from A375 cells; C6 ceramide and UDP-glucose at 2×Km; 20 h incubation at room temperature; UDP detected by luminescence.
Sequence of GCS enzyme (glucosylceramide synthase) contained within Golgi preparations isolated from human A375 malignant melanoma skin cells (Q16739 whole entry): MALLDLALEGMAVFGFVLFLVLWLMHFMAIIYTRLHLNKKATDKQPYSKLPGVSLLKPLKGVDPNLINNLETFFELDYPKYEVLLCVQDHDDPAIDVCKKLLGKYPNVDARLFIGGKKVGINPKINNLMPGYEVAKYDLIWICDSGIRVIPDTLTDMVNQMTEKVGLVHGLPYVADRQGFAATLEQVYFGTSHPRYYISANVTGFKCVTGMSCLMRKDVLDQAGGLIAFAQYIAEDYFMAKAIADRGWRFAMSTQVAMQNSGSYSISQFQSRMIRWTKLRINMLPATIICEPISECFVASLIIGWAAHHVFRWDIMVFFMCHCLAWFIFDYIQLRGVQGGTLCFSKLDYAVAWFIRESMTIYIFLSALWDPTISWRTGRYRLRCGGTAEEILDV
Text: UDP-Glo™ Glucosylceramide Synthase Biochemical Assay
A UDP-Glo™ glucosylceramide synthase biochemical assay was utilized to evaluate the effect of test compounds on the activity of endogenous levels of GCS enzyme contained within Golgi preparations isolated from human A375 malignant melanoma skin cells. The UDP-Glo™ glucosylceramide synthase assay uses UDP-Glucose as a nucleotide-glycosyl donor and ceramide as substrate acceptor molecules. In the reaction, glucosylceramide synthase (GCS) transfers glucose from UDP-Glucose to ceramide. Glucosylceramide and UDP are released as products.
Using Promega's UDP-Glo™ Glycosyltransferase assay kit (Promega Corporation, Madison, WI, USA (Promega)), GCS activity was indirectly measured by detecting the amount of UDP produced. An aliquot of GCS enzyme (1.5 μg crude golgi preparation, total protein) and titrated test compound were aliquoted to each well and incubated for 30 minutes at room temperature. Substrate mixture was prepared by mixing C6 ceramide (Avanti Polar Lipids, Alabaster, AL USA (Avanti)) (micelles prepared at 0.6 mM in 0.6 mM DOPC) and UDP-glucose (20 μ.M; Promega), at concentrations equivalent to 2×Km, in assay buffer (25 mM HEPES (pH 7.5), 50 mM KCl, 5 mM MgCl2). An equivalent volume of substrate mixture was then added to each well. Following a 20 h incubation at room temperature to allow for GCS turnover of substrate, an equal volume of UDP detection reagent (Promega) was added to each well and incubated for an additional 75 minutes at room temperature to simultaneously convert the accumulated UDP product into ATP and generate light in a luciferase reaction. The generated light was detected using a luminometer. […] luminescence values (RLUs) were normalized to mean “min” and “max” effects, as determined on each plate. “Min” was defined as the mean of the values of the wells treated with vehicle (DMSO) and which represent 0% inhibition; “max” was defined as the mean of the values of the wells treated with a reference inhibitor and which represent the 100% effect. Values for % Emax and EC50 were determined by best-fitting the normalized data to a curve in Activity Base along a four-parameter logistic nonlinear regression (4PL) model (based on the Levenberg-Marquardt algorithm and defined by the equation below): […]
where: n is 4PMin (bottom of the curve); m is 4PMax (top of the curve); i is IP (inflection point of curve); and p is slope. See Levenberg, K., “A Method for the Solution of Certain Problems in Least Squares”, Quart. Appl. Math. 2, (1944), pp 164-168 and Marquardt, D., “An Algorithm for Least Squares Estimation on Nonlinear Parameters”, SIAM J. Appl. Math. 11, (1963) pp 431-441.

`O=C(Nc1ccc2cnccc2n1)c1cc2cccc(-c3ccccc3OCC(F)(F)F)c2o1` [Compound 22, N-(1,6-naphthyridin-2-yl)-7-[2-(2,2,2-trifluoroethoxy)phenyl] benzofuran-2-carboxamide] was tested. Which EC50 did it give?
The EC50 was 0.023 nM.

For `O=C(N[C@H]1CC[C@H](CO)CC1)c1cc2cc(F)cc(-c3ccccc3OCC(F)(F)F)c2o1` [Compound 1, 5-fluoro-N-(trans-4-(hydroxymethyl)cyclohexyl)-7-(2-(2,2,2-trifluoroethoxy)phenyl) benzofuran-2-carboxamide], which EC50 is on record?
The EC50 was 0.99 nM.

For `O=C(NC12CCC(CO)(CC1)CC2)c1cc2cc(F)cc(-c3ccccc3OCC(F)(F)F)c2o1` [Compound 17, 5-fluoro-N-[4-(hydroxymethyl)-1-bicyclo[2.2.2]octanyl]-7-[2-(2,2,2-trifluoroethoxy)phenyl] benzofuran-2-carboxamide], which EC50 is on record?
Its EC50 is 0.89 nM.

`COc1cc(-c2ccccc2OCC(F)(F)F)c2oc(C(=O)NC3CCC(CO)CC3)cc2c1` (stereo not drawn) [Compound 31, N-[4-(hydroxymethyl)cyclohexyl]-5-methoxy-7-[2-(2,2,2-trifluoroethoxy)phenyl] benzofuran-2-carboxamide] was tested. Which EC50 did it give?
The EC50 was 4.1 nM.

With `CC(C)Oc1ccc(C#N)cc1-c1cc(Cl)cc2cc(C(=O)N[C@H]3C[C@@H](O)C3)oc12` [Compound 24, Cis-5-chloro-7-(5-cyano-2-isopropoxy-phenyl)-N-(3-hydroxycyclobutyl) benzofuran-2-carboxamide] as the compound, how does the EC50 read?
The EC50 was 0.044 nM.

For `COc1ccc(Cl)cc1-c1cc(F)cc2cc(C(=O)N[C@H]3C[C@@H](CO)C3)oc12` [Compound 28, Cis-7-(5-chloro-2-methoxy-phenyl)-5-fluoro-N-[3-(hydroxymethyl)cyclobutyl]be nzofuran-2-carboxamide], which EC50 is on record?
The EC50 was 0.6 nM.
